Patent publication US8852876B2, “Label free biosensors and cells” (Corning Incorporated, priority 2008, dated 2014)
*1 amine or outer side, *2 acyl side, *3 side chain or, on linkers, in order; H or OH if unused. Where a SMILES comes first, the peptide text is derived from it. Bridges are numbered along the chain shown (N, C = ends). [ ]: non-standard residue; d: D form. Trp(2-yl) = O=C([C@H](Cc1c([*:3])[nH]c2ccccc12)N[*:1])[*:2]; Leu(4R-OH,5-OH) = C[C@](O)(CO)C[C@H](N)C(=O)O; cisHyp = O=C(O)[C@@H]1C[C@H](O)CN1

Columns and labels:
[1] = tested on: quiescent A431 cells; assay: GPCR agonist-induced DMR and EGFR transactivation; type: cell-based, human; details: bradykinin 100 nM, carbachol 10 μM, clonidine 1 μM
Description: (§1) Both A431 and CHO-K1 cells were grown in Dulbecco's modified Eagle's medium (DMEM) supplemented with 10% fetal calf serum, 100 μg/ml penicillin, and 100 μg/ml streptomycin. For cell culture, certain numbers of cells (2×10^5 to 1×10^6), either A431 or CHO-K1, were suspended in […] medium were placed in each well of a 96 well Corning Epic Biosensor microplate, and were cultured at 37° C. in air/5% CO2 for certain time until the cell density reached ˜90% and above (unless specified). The resulted cells were termed as “profilerating” cells. The “quiescent” cells were obtained by culturing the profilerating cells of desired confluencies with a medium containing no or little (˜0.1% fetal bovine serum (FBS)) for at least 16 hours.
(§2) During the assays, the cells in 100 μl medium were subject to two 25 μl HBSS buffer containing 20 mM HEPES, pH 7.4, each separated by at least 15 minutes before 50 μl stimulus-containing solution was applied. During all these steps, a parallel angular interrogation system was used to monitor the real time kinetics of cellular responses. For compound effect studies, a modified protocol was used which starts with 50 μl medium, and subject to sequential treatment: 25 μl HBSS buffer twice (each separated by at least 15 minutes), 50 μl compound solution and finally 50 μl stimulus-containing solution.

[2] = tested on: CHO cells; assay: Saponin-permeabilized cell assay for cytoskeleton modulators (LID biosensor); type: cell-based, Chinese hamster; details: saponin 67 ug/ml
Source text: The method involves the use of pore-forming reagents (e.g, saponin) to generate permeabilized cells which permit soluble proteins to diffuse away. It is known that treatment of the cells with many pore-forming reagents leads to permeabilized cells. Since intracellular macromolecules are highly organized within the cytoplasm of mammalian cells through direct binding to cytoskeletal elements, the permeabilized cells still retain most of the biological functions of living cells by sequestration of intracellular machinery through the cytoskeleton super-assembled structure, although the saponin-treated cells undergo the loss of some portions of biomacromolecules. However, upon disruption of microfilaments there is a dramatic reduction of protein synthesis accompanied by release of these translation components from the cells. Also, many other sequestered biomacromolecules are released from these permeabilized cells after disrupting the cytoskeleton structure. These further released materials from the permeabilized cells result in the loss in mass; thus resulting in the changes in effective refractive index of the cell layer on the surface of a LID biosensor which can be detected by LID biosensors. Thus, the changes obtained using optical biosensors can be used as an indicator of modulators that interfere with the cytoskeleton structure. In one embodiment, the present methods can be used to screen modulators that interfere with the cytoskeleton structure using the method 2500 shown in FIG. 25. In accordance with method 2500 one can monitor the mass redistribution due to pore formation of cell surface membranes induced by pore-forming reagents such as saponin in living cells 1008 by: (a) providing an optical LID biosensors 1004 (step 2502); (b) placing cells 1008 in a cell medium onto the said sensor 1004 (step 2504); (c) Optionally applying a buffer solution (step 2506); (d) applying a solution containing a compound into the cell mediums located on the top surfaces 1010 of covered optical LID biosensors 1004 (step 2508); applying a solution containing a pore-forming reagent (step 2510); and (e) interrogating the covered optical LID biosensors 1010 to monitor the time dependent optical responses which indicate mass redistributions within the permeabilized cells 1008 (step 2512). A Pore-forming reagent is a chemical or biological compound or composition that can result in the formation of pores in cell surface membranes when the cells are exposed to the reagent.
The pore-forming regents include detergents such as saponin and filipin, or toxin such as digitonin or streptolysin O. It is well known that treatment of the cells with these reagents can result in the pore formation in cell surface membrane; the resulted permeabilized cells can release a certain amount of intracellular material, mainly soluble proteins. However, there are a great number of bio-materials that still stay with these permeabilized cells due to the sequestration by directly binding or association with the cytoskeleton structure. As a matter of fact, these permeabilized cells retain many of the biological functions of living cells such as protein synthesis.
FIG. 50 presents the dose-dependent responses of CHO cells adherent on the surface of a LID sensor in response to saponin as a function of time. After the addition of saponin at different concentrations, a different response is evident. At low concentration, there is almost no response. […]

[3] = molecular target: T1, protease activated receptors PAR1 and PAR2 (Homo sapiens, UniProt P25116); type: cell-based; details: 40 unit/ml thrombin; modulators 10 μM
T1 construct: A431 cells which endogenously express PAR1 and PAR2; endogenous in cells; host or cells: A431
T1 sequence (P25116 22-425): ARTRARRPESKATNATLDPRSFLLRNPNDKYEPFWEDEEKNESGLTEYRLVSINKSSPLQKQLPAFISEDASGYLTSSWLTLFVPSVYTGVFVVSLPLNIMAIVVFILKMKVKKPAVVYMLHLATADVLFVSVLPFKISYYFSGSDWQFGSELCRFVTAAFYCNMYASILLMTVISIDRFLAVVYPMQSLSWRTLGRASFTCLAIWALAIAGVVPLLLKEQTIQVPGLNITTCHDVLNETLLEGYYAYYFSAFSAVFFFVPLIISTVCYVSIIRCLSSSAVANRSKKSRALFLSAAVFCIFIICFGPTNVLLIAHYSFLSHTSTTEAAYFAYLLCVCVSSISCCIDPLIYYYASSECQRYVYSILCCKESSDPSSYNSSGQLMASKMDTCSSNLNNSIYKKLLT
Description: (§3) Human epidermoid carcinoma A431 cells (American Type Cell Culture) were grown in Dulbecco's modified Eagle's medium (DMEM) supplemented with 10% fetal bovine serum (FBS), 4.5 g/liter glucose, 2 mM glutamine, and antibiotics. ˜3-7.5×10^4 cells at passage 3 to 5 suspended in 200 μl the DMEM medium containing 10% FBS were placed in each well of a 96 well microplate, and were cultured at 37° C. under air/5% CO2 until ˜95% confluency was reached (˜2-4 days).
(§4) The compound or PAR agonist solutions were made in 1×HBSS in order to match the refractive index between the cell medium and compound solution, thus minimizing the unwanted effect of bulk index change due to the introduction of compound solution which can temporarily overwhelms any DMR signal as it occurs.

[4] = tested on: protease activated receptors PAR1 and PAR2; type: cell-based, human; details: 100 or 200 nM trypsin; modulators 10 μM
Description: as §3, §4

[5] = tested on: EGF-induced response of quiescent A431 cells; assay: Effect of compound pretreatment on EGF-induced DMR response; type: cell-based, human; details: for Effect of pretreatment on 32 nM EGF-induced response: quiescent A431 cells
Description: as §1, §2

[6] = molecular target: T2, rat muscarinic receptor subtype 1 (Rattus norvegicus, UniProt P08482); assay: GPCR agonist-induced mass redistribution in M1 CHO cells (optical LID); type: cell-based
T2 construct: expressed in transfected cells; host or cells: CHO (M1 CHO)
T2 sequence (P08482 1-460): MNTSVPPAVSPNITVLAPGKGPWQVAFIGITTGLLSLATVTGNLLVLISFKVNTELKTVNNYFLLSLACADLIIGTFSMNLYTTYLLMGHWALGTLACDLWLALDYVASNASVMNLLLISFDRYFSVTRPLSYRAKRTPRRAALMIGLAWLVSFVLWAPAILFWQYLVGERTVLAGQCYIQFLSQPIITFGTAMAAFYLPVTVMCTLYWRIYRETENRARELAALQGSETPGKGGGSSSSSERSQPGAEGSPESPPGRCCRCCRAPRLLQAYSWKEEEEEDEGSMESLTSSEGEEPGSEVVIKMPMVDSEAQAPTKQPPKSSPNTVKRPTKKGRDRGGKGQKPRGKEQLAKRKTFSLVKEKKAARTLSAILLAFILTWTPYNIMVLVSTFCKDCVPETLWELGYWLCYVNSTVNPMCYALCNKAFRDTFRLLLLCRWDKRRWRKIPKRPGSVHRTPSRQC

[7] = tested on: CHO cells; assay: GPCR agonist-induced mass redistribution (optical LID); type: cell-based, Chinese hamster
Source text: These translocations can be located on a surface of an optical LID biosensor as disclosed herein. The particular data shown in FIGS. 52-60 was obtained using an optical waveguide grating sensor system and LID microplates (Nb2O5 plates), manufactured by Corning Incorporated. […] It is known that CHO cells 1008 endogenously express beta adrenergic receptors, alpha2-adrenergic receptors, P2Y receptors, as well as beta-arrestin and GRKs. It is also known that muscarinic receptors are endogenously expressed at very low level in the CHO cells 1008. In this experiment, approximately ˜5×10^4 CHO cells 1008 were placed within each well of a microplate that contained an array of optical LID biosensors 1004. The CHO cells 1008 were then cultured in 150 μl serum medium for 24 hours to ensure that the CHO cells 1008 became adherent to the substrate surface 1010. […] Since muscarinic receptors are endogenously expressed at very low level in CHO cells, oxotremorine M, agonist for muscarinic receptors, served as a control. Each of these agonists was directly applied to a different one of the wells which contained the serum medium. The optical responses were then collected by the optical LID system.

C[N+](C)(C)CCOC(N)=O [Carbachol, carbachol]
GPCR agonist-induced DMR response curve [1]: responses with almost identical features as those induced by low concentrations (2-8 nM) of EGF

C[C@H]1CCC/C=C/[C@@H]2C[C@H](O)C[C@H]2[C@H](O)/C=C/C(=O)O1 [brefeldin A]
Effect of compound pre-treatment on saponin-induced response (loss of biomaterials) [2]: show no effect on a saponin-induced response

C=C1[C@@H](C)[C@H]2[C@H](Cc3ccccc3)NC(=O)[C@]23OC(=O)/C=C/[C@H](O)CCC[C@@H](C)C/C=C/[C@H]3[C@@H]1O [cytochalasin B]
Effect of pretreatment on thrombin-mediated DMR signal [3]: much less effective in suppressing the responses
Effect of pretreatment on trypsin-mediated DMR signal [4]: much less effective in suppressing the responses
Effect of compound pre-treatment on saponin-induced response (loss of biomaterials) [2]: cause increased loss of biomaterials
Effect of pretreatment on 32 nM EGF-induced response [5]: totally abolished the N-DMR signal

C[N+](C)(C)CC#CCN1CCCC1=O [oxotremorine M]
Ligand-induced response in M1-CHO cells ([6]; 10 μM, compared with CHO cells): significantly larger responses in M1-CHO cells
Agonist-induced optical response ([7]; ATP 100 μM, clonidine 10 μM, epinephrine 100 μM, oxotremorine M 10 μM): caused almost no cell response

C[C@@H]1NC(=O)[C@H](C[C@@](C)(O)CO)NC(=O)[C@@H]2Cc3c([nH]c4ccccc34)SC[C@H](NC(=O)[C@@H]([C@H](C)O)NC1=O)C(=O)N1C[C@@H](O)C[C@H]1C(=O)N[C@@H](C)C(=O)N2 [phalloidin] (cyclo(A[dT]C[cisHyp]A[Trp(2-yl)][Leu(4R-OH,5-OH)]); thioether 3-6)
Effect of pretreatment on thrombin-mediated DMR signal [3]: neither a stabilizing polymeric F-actin agent phalloidin nor a microtubule disrupter nocodazole had significant effect
Effect of pretreatment on trypsin-mediated DMR signal [4]: neither a stabilizing polymeric F-actin agent phalloidin nor a microtubule disrupter nocodazole had significant effect
Effect of compound pre-treatment on saponin-induced response (loss of biomaterials) [2]: delay the loss of biomaterials in saponin-treated cells
Effect of pretreatment on 32 nM EGF-induced response [5]: hardly any effect on the EGF-induced response

CC[C@]1(O)C[C@@H]2CN(CCc3c([nH]c4ccccc34)[C@@](C(=O)OC)(c3cc4c(cc3OC)N(C)[C@H]3[C@@](O)(C(=O)OC)[C@H](OC(C)=O)[C@]5(CC)C=CCN6CC[C@]43[C@@H]65)C2)C1 [vinblastine]
Effect of compound pre-treatment on saponin-induced response (loss of biomaterials) [2]: block the saponin-induced loss of biomaterials from the cells
Effect of pretreatment on 32 nM EGF-induced response [5]: hardly any effect on the EGF-induced response

dynamin inhibitory peptide [DIP]
Effect of pre-incubation on NECA-induced response ([6]; DIP 50 μM, 45 minutes, NECA 10 μM, M1 CHO): little effect on NECA-induced response
Effect of pre-incubation on clonidine-induced response ([6]; DIP 50 μM, 45 minutes, clonidine 10 μM, M1 CHO): almost totally eliminates the clonidine-induced mass distribution response
Effect of pre-incubation on oxotremorine M-induced response ([6]; DIP 50 μM, 45 minutes, oxotremorine M 10 μM, M1 CHO): almost totally eliminates the oxotremorine M-induced mass distribution responses in both cell lines
Effect of pre-incubation on NECA-induced response ([7]; DIP 50 μM, 45 minutes, NECA 10 μM, CHO): little effect on NECA-induced response
Effect of pre-incubation on clonidine-induced response ([7]; DIP 50 μM, 45 minutes, clonidine 10 μM, CHO): almost totally eliminates the clonidine-induced mass distribution response
Effect of pre-incubation on oxotremorine M-induced response ([7]; DIP 50 μM, 45 minutes, oxotremorine M 10 μM, CHO): almost totally eliminates the oxotremorine M-induced mass distribution responses in both cell lines
Effect of compound pre-treatment on saponin-induced response (loss of biomaterials) [2]: show no effect on a saponin-induced response
Effect of pre-treatment on EGF-induced P-DMR and N-DMR signals ([5]; starved A431 cells, 8 nM EGF, 30-minute pretreatment, GH 0.5 ng/ml, PD98059 0.1 mM, PP1 1 μM, wortmannin 0.1 μM, DIP 50 μM): totally blocks the N-DMR signal, but slightly increases the P-DMR signal with much slower kinetics
Increase of total P-DMR signal in presence vs absence of compound ([5]; starved A431 cells, EGF, DIP 50 μM): 50%
